Assays:
Type in all cases: in vivo
[1] = system: cotton worm (Spodoptera litura); assay: Test method 3: sprayed cabbage seedlings, 3rd instar larvae of cotton worm; details: 500 ppm, spray 20 mL/seedling on cabbage, after 5 days, 25° C.
Description: (§1) Next, Test Examples are used to show effects of the Present compounds on harmful arthropods. In the following Test Examples, the tests were carried out at 25° C.
(§2) Each test compound is formulated according to the method described in the Formulation Example 5 to obtain each formulation, and water containing Sindaine (registered trademark) (0.03% by volume) is added thereto to prepare a diluted solution containing a prescribed concentration of each test compound.
(§3) Cabbage (Brassicae oleracea) seedlings (on the developmental stage of the second to third true leaf) are planted in a container, and each of said diluted solutions is sprayed into the seedlings in a ratio of 20 mL/seedlings. Thereafter, the stem and leaf of the seedlings are cut out, and placed into a container lined with a filter paper. Five (5) the 3rd instar larvae of cotton worm (Spodoptera litura) are released into the container. After 5 days, the number of the surviving insects is counted, and the mortality of insects is calculated by the following equation. Mortality (%)=(1−Number of surviving insects/5)×100

[2] = system: western corn rootworm (Diabrotica virgifera virgifera); assay: Test method 5: corn seedlings immersed in diluted solution, 2nd instar larvae of western corn rootworm; details: 500 ppm, corn seedlings immersed 30 seconds, after 5 days, 25° C.
Description: as §1
Each test compound is dissolved into a mixed solution (50 μL) of polyoxyethylene sorbitan mono-cocoate and acetone (at a volume ratio of polyoxyethylene sorbitan mono-cocoate:acetone=5:95) per 1 mg of the test compound. Water containing Sindaine (registered trademark) (0.03% by volume) is added thereto to prepare a diluted solution containing a prescribed concentration of each test compound.
Young seedlings of corns (Zea mays) are immersed into each of said diluted solutions for 30 seconds. Thereafter, two of said seedlings are placed into a petri dish (diameter: 90 mm), and 10 the 2nd instar larvae of western corn rootworm (Diabrotica virgifera virgifera) are released into the dish. After 5 days, the number of the dead insects is counted, and the mortality of insects is calculated by the following equation. Mortality (%)=(Number of dead insects/10)×100

[3] = system: cotton aphids (Aphis gossypii); assay: Test method 1: diluted solution sprayed on cucumber seedlings infested with cotton aphids; details: 500 ppm, spray 10 mL/seedling on cucumber, 5 days after spraying, 25° C.
Description: as §1, §2
Cucumber (Cucumis sativus) seedlings (on the developmental stage of the second true leaf) are planted in a container and approximately 30 cotton aphids (Aphis gossypii) (all stages of life) are released onto the cucumber seedlings. After 1 day, each of said diluted solutions is sprayed into the seedlings in a ratio of 10 mL/seedling. After additional 5 days, the number of the surviving insects is examined and the controlling value is calculated by the following equation. Controlling value (%)={1−(Cb×Tai)/(Cai×Tb)}×100 wherein the symbols in the equation represent the following meanings.
(§4) Cb: Number of the test insects in non-treated area;
Cai: Number of the surviving insects at the time of the investigation in non-treated area; Tb: Number of the test insects in treated area;
(§5) Tai: Number of the surviving insects at the time of the investigation in treated area; […]

[4] = system: diamondback moth (Plutella xylostella); assay: Test method 4: sprayed cabbage seedlings, 3rd instar larvae of diamondback moth; details: 500 ppm, spray 20 mL/seedling on cabbage, after 5 days, 25° C.
Description: as §1, §2
as §3, with “Cabbage” for “Cabbage (Brassicae oleracea)”, “diamondback moth (Plutella xylostella)” for “cotton worm (Spodoptera litura)”

[5] = system: cotton aphids (Aphis gossypii); assay: Test method 2: diluted solution irrigated into plant foot of cucumber seedlings, cotton aphids released after 7 days; details: 1000 ppm, irrigation into plant foot 5 mL/seedling, counted after additional 6 days, 25° C.
Description: as §1
Each test compound is formulated according to the method described in the Formulation Example 5 to obtain each formulation, and water is added thereto to prepare a diluted solution containing a prescribed concentration of each test compound.
Cucumber seedlings (on the developmental stage of the second true leaf) are planted in a container, and each of said diluted solutions is irrigated into the plant foot in a ratio of 5 mL/seedlings. After 7 days, approximately 30 cotton aphids (Aphis gossypii) (all stages of life) are released onto the surfaces of leaves of the cucumber seedlings. After additional 6 days, the number of the surviving insects is examined and the controlling value is calculated by the following equation. Controlling value (%)={1−(Cb×Tai)/(Cai×Tb)}×100 wherein the symbols in the equation represent the following meanings.
as §4
Cai: Number of the surviving insects at the time of the investigation in non-treated area;
Tb: Number of the test insects in treated area;
as §5

**Q.** What does the source list for `CCS(=O)(=O)c1c(-n2ccn3nc(C(F)(F)F)cc3c2=O)nc2ccc(C(F)(F)F)cn12` [compound 2]?
**A.** mortality [1]: ≥ 80%; mortality [2]: ≥ 80%; controlling value [3]: ≥ 90%; mortality [4]: ≥ 80%; controlling value [5]: ≥ 90%
